Data reported in PMC4476799, “Englerin A Agonizes the TRPC4/C5 Cation Channels to Inhibit Tumor Cell Line Proliferation” (PLoS ONE, 2015).
Where two headings read alike, the source gives them in different places.

Tested on: cancer cell lines from the cancer cell line encyclopedia (CCLE)
Test: Cell line profiling (CLiP) proliferation experiment
Assay type: cell-based
Settings: Homo sapiens; for IC50: read-out: Crossing Point; for EC50: read-out: Inflection Point
Description: Compound profiling experiment and data analysis was performed as previously described. Data was imported and plotted using the Tibco Spotfire DXP application. Lines were categorized as sensitive, intermediate and refractory as follows: Amax<-40 & Inflection Point <2 ~ Sensitive, Amax>-20 & Inflection Point >10 ~ Refractory, all else were called Intermediate. Cancer Cell line HG-U133 Plus 2 data was processed and normalized as described. […] Five sets of refractory cell lines were generated from the pool of refractory cell lines trying to match the lineage composition of the set of sensitive cell lines. The limma package was used as previously described to perform the statistical comparison.

[1] = CHP-212, CHP-212, autonomic_ganglia, NS
[2] = COLO 205, COLO 205, large_intestine, adenocarcinoma
[3] = COLO-668, COLO 668, lung, small_cell_carcinoma
[4] = COR-L279, COR-L279, lung, small_cell_carcinoma
[5] = Calu-6, Calu-6, lung, undifferentiated_carcinoma
[6] = DMS-114, DMS 114, lung, small_cell_carcinoma
[7] = DMS-273, DMS 273, lung, small_cell_carcinoma
[8] = DOHH-2, cell line DOHH-2, haematopoietic_and_lymphoid_tissue
[9] = EFM-19, cell line EFM-19, breast
[10] = FaDu, cell line FaDu, upper_aerodigestive_tract
[11] = G-401, cell line G-401, soft_tissue
[12] = HCC1143, cell line HCC1143, breast

CC(C)[C@@]12C[C@@H](O)[C@@](C)(O1)[C@@H]1CC[C@@H](C)[C@H]1[C@@H]2OC(=O)/C=C/c1ccccc1 [Englerin B]
IC50 (CHL-1, CHL-1, skin, NS): 26.2 µM | IC50 (CHL-1, CHL-1 cells): 26.2 µM | IC50 [1]: 22.7 µM | EC50 [1]: 13.9 µM | EC50 (CHP-212, CHP-212 cells): 13.9 µM | IC50 (CMK, CMK cells): > 30 µM | IC50 [2]: 16.5 µM | EC50 [2]: 11.8 µM | EC50 (COLO 205, COLO 205 cells): 11.8 µM | IC50 (COLO 320, COLO-320, large_intestine, adenocarcinoma): 11 µM | IC50 [3]: 26 µM | EC50 [3]: 26 µM | IC50 (COLO-668, COLO 668 cells): 26 µM | EC50 (COLO-668, COLO 668 cells): 26 µM | IC50 (COLO-680N, COLO-680N (oesophagus)): > 30 µM | IC50 (COLO-680N, oesophagus, squamous_cell_carcinoma): > 30 µM | IC50 (COLO-741, COLO 741, skin, NS): > 30 µM | EC50 (COLO-741, COLO 741, skin, NS): 11.6 µM | IC50 (COLO-741, COLO 741 cells): > 30 µM | EC50 (COLO-741, COLO 741 cells): 11.6 µM | IC50 (COLO-800, COLO-800, skin, NS): > 30 µM | IC50 (COLO-800, cell line COLO-800 (skin, NS)): > 30 µM | IC50 (COLO-829, COLO 829, skin, NS): > 30 µM | IC50 (COLO-829, COLO 829 cells): > 30 µM | IC50 (COR-L23, COR-L23 (lung)): > 30 µM | IC50 (COR-L23, COR-L23, lung, large_cell_carcinoma): > 30 µM | IC50 (COR-L47, COR-L47, lung, small_cell_carcinoma): > 30 µM | IC50 (COR-L47, COR-L47 cells): > 30 µM | IC50 (COR-L88, COR-L88 (lung)): > 30 µM | IC50 (COR-L88, COR-L88, lung, small_cell_carcinoma): > 30 µM | IC50 [4]: 6.69 µM | EC50 [4]: 6.69 µM | IC50 (Calu-1, Calu-1, lung, squamous_cell_carcinoma): > 30 µM | IC50 (Calu-1, cell line Calu-1): > 30 µM | IC50 (Calu-3, Calu-3 (lung)): > 30 µM | IC50 (Calu-3, Calu-3, lung, adenocarcinoma): > 30 µM | IC50 [5]: > 30 µM | EC50 [5]: 11.6 µM | IC50 (Calu-6, Calu-6 cells): > 30 µM | EC50 (Calu-6, Calu-6 cells): 11.6 µM | IC50 (Caov-3, Caov-3, ovary, adenocarcinoma): 15.3 µM | IC50 (DBTRG-05MG, cell line DBTRG-05MG (central_nervous_system, astrocytoma_Grade_IV)): > 30 µM | IC50 (DBTRG-05MG, central_nervous_system, astrocytoma_Grade_IV): > 30 µM | IC50 (DLD-1, DLD-1, large_intestine, adenocarcinoma): 21.7 µM | IC50 (DMS-79, DMS 79 (lung)): > 30 µM | IC50 (DMS-79, cell line DMS 79, lung): > 30 µM | IC50 [6]: 17.5 µM | EC50 [6]: 11.7 µM | IC50 (DMS-114, cell line DMS 114): 17.5 µM | IC50 [7]: 16.4 µM | EC50 [7]: 13.7 µM | IC50 [8]: 13.1 µM | EC50 [8]: 12.9 µM | IC50 (DU-145, cell line DU 145, prostate): 8.94 µM | IC50 (DV-90, cell line DV-90, lung): 18 µM | EC50 (DV-90, cell line DV-90, lung): 14.9 µM | IC50 (Daoy, Daoy (central_nervous_system)): > 30 µM | IC50 (Daoy, central_nervous_system, NS): > 30 µM | IC50 (Detroit 562, Detroit 562, upper_aerodigestive_tract, NS): > 30 µM | IC50 (Detroit 562, cell line Detroit 562): > 30 µM | IC50 (EBC-1, cell line EBC-1, lung): 24 µM | EC50 (EBC-1, cell line EBC-1, lung): 11.6 µM | IC50 (EFM-19, cell line EFM-19 (breast, ductal_carcinoma)): > 30 µM | IC50 [9]: > 30 µM | EC50 [9]: 7.15 µM | IC50 (EOL1, cell line EOL-1, haematopoietic_and_lymphoid_tissue): 11.8 µM | IC50 (ESS-1, cell line ESS-1, endometrium): 18.7 µM | IC50 [10]: 17.8 µM | EC50 [10]: 12.9 µM | IC50 (G-361, cell line G-361, skin): > 30 µM | IC50 (G-361, cell line G-361): > 30 µM | IC50 [11]: 14.3 µM | EC50 [11]: 11.9 µM | EC50 (G-401, cell line G-401): 11.9 µM | IC50 (G-402, cell line G-402, soft_tissue): 9.9 µM | IC50 (GA-10, cell line GA-10, haematopoietic_and_lymphoid_tissue): > 30 µM | IC50 (GA-10, cell line GA-10): > 30 µM | IC50 (GAMG, GAMG (central_nervous_system)): > 30 µM | IC50 (GAMG, cell line GAMG, central_nervous_system): > 30 µM | IC50 (GCIY, cell line GCIY, stomach): 15.8 µM | IC50 (GMS-10, cell line GMS-10, central_nervous_system): > 30 µM | IC50 (GMS-10, cell line GMS-10): > 30 µM | IC50 (Granta-519, cell line GRANTA-519, haematopoietic_and_lymphoid_tissue): > 30 µM | IC50 (Granta-519, cell line GRANTA-519): > 30 µM | IC50 (HCC38, cell line HCC38, breast): > 30 µM | IC50 (HCC38, cell line HCC38): > 30 µM | IC50 (HCC44, cell line HCC-44, lung): 22.8 µM | IC50 (HCC95, cell line HCC-95, lung): 27.6 µM | EC50 (HCC95, cell line HCC-95, lung): 26.7 µM | IC50 (HCC827, cell line HCC827, lung): 19.3 µM | IC50 [12]: > 30 µM | EC50 [12]: 9.85 µM
